Measured values taken from US20250092035A1, “ISOCITRATE DEHYDROGENASE 1 INHIBITORS AND METHODS OF USE THEREOF” (THE WISTAR INSTITUTE OF ANATOMY AND BIOLOGY, priority 2022, published 2025).

Legend:
[1] = molecular target: T1, IDH1 protein in MiaPaCa-2 PC cells (Homo sapiens, UniProt O75874); test: Cellular thermal shift assay; assay type: cell-based; details: 1 μM
T1 construct: endogenous in cells; host or cells: MiaPaCa-2 pancreatic cancer cells
Description: Cellular Thermal Shift assay. Thermal shift experiments were performed as previously described (72). Briefly, cells were cultured in media containing the indicated experimental concentrations of MgSO4 under standard conditions (25 mM glucose, 4 mM glutamine and 10% FBS) for 24 hours. […] Cells were then trypsinized, washed with PBS, suspended in PBS (containing protease inhibitors), lysed through three freeze-thaw cycles at liquid nitrogen−37° C., and then heated at the indicated temperatures for three minutes. Preparations were spun down at 13,000 rpm for 10 min at 4° C. to remove denatured proteins, and supernatants were loaded on a Western blot gel. Western blots were performed as described.

HCT116 cells = test: Clonogenic growth of colon cancer cells; assay type: cell-based, human; details: low Mg2+ and glucose
Description: (§1) Clonogenic assay. 1000-2000 cells per well were plated in six-well plates. Media was not changed during experiments unless indicated. […] Upon completion of the experiments, colonies were fixed in a reagent containing 80% methanol and stained with 0.5% crystal violet. To determine relative growth, dye was extracted from stained colonies with 10% acetic acid and the associated absorbance measured at 600 nm using a Microplate Reader (GloMax Explorer system, Promega).

MiaPaCa-2 PC cells = test: ROS levels (DCFDA assay); assay type: cell-based, human
Description: ROS and 8-OHdG quantification. Cells were incubated in a 96-well plate with 10 μM H2-DCFDA (Life Technology, D399) for 45 min in serum-free media to detect total intracellular ROS. For mitochondrial-specific ROS, cells were incubated with 5 μM MitoSOX Red (Life Technologies, M36008) for 30 min in serum-free media. Cells were washed with PBS, and fluorescence measured according to manufacturer instructions using a Microplate Reader (GloMax Explorer system, Promega). 8-OHdG was measured according to the manufacturer's instructions (Abcam, AB201734). Readouts were normalized to cell number.

MiaPaCa-2 cells = details: PC cells
PC cells = test: Metabolic profiling (αKG, TCA metabolites) in PC cells; assay type: cell-based, human
Human PC cells = test: Clonogenic growth of human PC cells; assay type: cell-based; details: low Mg2+ and glucose
Description: as §1

wtIDH2 = molecular target: T2, wtIDH2 (Homo sapiens, UniProt P48735); test: Cell-based IDH2 activity in MiaPaCa-2 PC cells
T2 construct: endogenous in cells; host or cells: MiaPaCa-2 pancreatic cancer cells (IDH1 silenced by siRNA)
T2 sequence (P48735 40-452): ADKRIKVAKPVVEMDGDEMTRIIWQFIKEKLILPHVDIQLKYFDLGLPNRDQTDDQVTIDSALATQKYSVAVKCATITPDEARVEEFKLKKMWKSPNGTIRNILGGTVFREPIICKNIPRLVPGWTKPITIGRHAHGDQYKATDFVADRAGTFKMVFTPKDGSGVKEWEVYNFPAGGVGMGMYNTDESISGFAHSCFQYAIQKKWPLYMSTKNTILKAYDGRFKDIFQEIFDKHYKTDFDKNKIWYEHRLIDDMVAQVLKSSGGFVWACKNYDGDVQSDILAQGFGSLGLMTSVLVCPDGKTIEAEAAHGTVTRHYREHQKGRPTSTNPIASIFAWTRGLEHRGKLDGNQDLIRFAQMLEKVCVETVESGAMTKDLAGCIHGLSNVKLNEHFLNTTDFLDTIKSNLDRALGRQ
Description: (§2) IDH activity assay. Cell-based wtIDH activity is measured by quantitation of IDH-dependent NADPH synthesis (Abcam, ab 102528). The reaction measures the activity of both IDH1 and IDH2 isoenzymes. IDH1 activity is specifically measured using the same assay after transient siRNA silencing of IDH2 (Extended Data FIG. 6i). The opposite approach is used to estimate IDH2 activity. All readouts were normalized to cell number. Cell-free wtIDH1 activity was performed by a fluorometric assay measuring NADPH levels at 355/460 nm. The assay contained 0.25 nM human recombinant IDH1 (RD systems), 30 μM isocitrate, and 30 μM NADP^+ in 20 μL of 100 mM Tris-HCL, pH8, 0.2 mM DTT, 0.05% CHAPS, and MgCl2 at the indicated levels. Formation of NADPH was measured over 40 min at 5 min intervals.

murine PC models = test: KPC and tamoxifen-inducible KP−/−C mouse models; assay type: in vivo; details: two difficult-to-treat murine PC models
Description: In vivo studies. […] Mice were maintained under pathogen-free conditions in the animal facility. No additional food or nutrient-contained bedding provided to the animals during these studies. […] Mice on a mixed background were bred in-house at the CRUK Beatson Institute and maintained in conventional caging with environmental enrichment, access to standard chow and water ad libitum. […] Mice were monitored 3 times weekly and when a diagnosis of pancreatic cancer was made by abdominal palpation, this was confirmed by high-resolution ultrasound imaging, using the VisualSonics Vevo 3100 preclinical imaging platform (FUJIFILM VisualSonics, Toronto, Canada). Anesthesia was induced and maintained with a mixture of isoflurane and medical air. Mice were imaged weekly to monitor tumor progression and tumor volume was assessed for each mouse and plotted longitudinally. […] Tamoxifen dissolved in corn oil at 20 mg/ml, and animals received tamoxifen (75 mg/kg, IP administration, once daily) for six consecutive days. For flank xenograft experiments, 1×10^6 cells were suspended in 200 μL of a PBS:matrigel solution (1:1) and injected subcutaneously into the right flank of mice. […] For all flank xenograft experiments, tumor volumes were measured twice per week using a caliper (volume=length×width^2/2). […] Body weights were measured once weekly for the indicated time. […]

IDH1 = IDH1 (Homo sapiens, UniProt O75874); test: Cell-free wtIDH1 activity (fluorometric NADPH); assay type: biochemical; set-up: purchased RD systems; details: Mg2+ reduced to 0.1 mM
Sequence of IDH1 (O75874 whole entry): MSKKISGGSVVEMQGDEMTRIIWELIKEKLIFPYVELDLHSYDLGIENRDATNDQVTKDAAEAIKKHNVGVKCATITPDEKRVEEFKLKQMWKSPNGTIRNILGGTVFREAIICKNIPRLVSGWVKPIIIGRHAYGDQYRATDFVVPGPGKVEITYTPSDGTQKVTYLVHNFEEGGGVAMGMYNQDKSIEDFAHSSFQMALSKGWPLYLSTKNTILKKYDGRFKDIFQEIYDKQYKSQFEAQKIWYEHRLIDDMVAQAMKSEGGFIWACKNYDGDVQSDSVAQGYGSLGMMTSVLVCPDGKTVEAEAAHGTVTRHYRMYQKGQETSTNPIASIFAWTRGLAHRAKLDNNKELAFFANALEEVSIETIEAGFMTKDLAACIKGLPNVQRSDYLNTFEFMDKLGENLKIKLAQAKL
Description: as §2

KPC allografts = test: Subcutaneous KPC allografts in nude mice; assay type: in vivo, mouse; details: flanks of nude mice
Description: In vivo studies. […] Mice were maintained under pathogen-free conditions in the animal facility. No additional food or nutrient-contained bedding provided to the animals during these studies. […] Mice with subcutaneous PDX were purchased from The Jackson Laboratory (#TM01212). […] For flank xenograft experiments, 1×10^6 cells were suspended in 200 μL of a PBS:matrigel solution (1:1) and injected subcutaneously into the right flank of mice. […] Equal number of male and female mice were used. […] For the indicated experiments, hyperglycemia was induced by allowing mice to drink high glucose content water (30% dextrose; abbreviated as D30 water) starting two weeks before cancer cell implantation. […] An equal volume of vehicle was administrated to control mice. NAC water (1.2 g/L) was refreshed twice weekly for the indicated experiments. A high magnesium diet, magnesium sulfate water (MgSO4, 1.5 g/L) was used for the indicated experiments. For all flank xenograft experiments, tumor volumes were measured twice per week using a caliper (volume=length×width^2/2). Upon termination of animal experiments, mice were euthanized using carbon dioxide inhalation followed by cervical dislocation, and tumors were harvested. Body weights were measured once weekly for the indicated time.

[2] = test system: murine PC cells (KPC K8484); test: IDH1 activity and clonogenic growth in murine PC cells; assay type: cell-based, mouse
Description: IDH activity assay. […] The reaction measures the activity of both IDH1 and IDH2 isoenzymes. IDH1 activity is specifically measured using the same assay after transient siRNA silencing of IDH2 (Extended Data FIG. 6i). […] All readouts were normalized to cell number. […] Formation of NADPH was measured over 40 min at 5 min intervals.

T1 sequence (O75874 2-414 limits assumed): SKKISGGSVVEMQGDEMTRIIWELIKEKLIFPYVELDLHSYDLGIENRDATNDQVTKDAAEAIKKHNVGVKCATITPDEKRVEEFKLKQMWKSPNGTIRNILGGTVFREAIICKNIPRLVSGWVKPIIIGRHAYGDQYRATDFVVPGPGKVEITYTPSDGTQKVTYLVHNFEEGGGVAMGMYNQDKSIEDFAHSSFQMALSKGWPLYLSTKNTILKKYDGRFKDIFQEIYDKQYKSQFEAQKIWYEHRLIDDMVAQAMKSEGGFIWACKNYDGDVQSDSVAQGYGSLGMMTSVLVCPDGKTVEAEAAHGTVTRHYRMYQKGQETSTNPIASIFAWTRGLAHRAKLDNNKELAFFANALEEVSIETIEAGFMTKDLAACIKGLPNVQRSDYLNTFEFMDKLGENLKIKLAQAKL

N#Cc1ccnc(N2C(=O)CC[C@H]2C(=O)N(c2cncc(F)c2)[C@H](C(=O)NC2CC(F)(F)C2)c2ccccc2Cl)c1 [AG-120, ivosidenib]
thermal stabilization of IDH1 ([1]; higher Mg2+ levels): no effect
thermal stabilization of IDH1 ([1]; low Mg2+ concentrations): stabilized the protein
response in culture (HCT116 cells): responded to the drug
intracellular ROS (MiaPaCa-2 PC cells; higher Mg2+ levels): No such effect
intracellular ROS (MiaPaCa-2 PC cells; low Mg2+ combined with low glucose): surge in intracellular ROS
combination with chemotherapeutic agents (MiaPaCa-2 cells): enhanced the efficacy of chemotherapeutic agents
TCA metabolite levels (PC cells; low glucose and Mg2+): reduced TCA metabolites levels
αKG levels (PC cells; low glucose conditions): reduced αKG levels
cell survival (Human PC cells): markedly impaired survival
inhibitory activity against wtIDH2 (wtIDH2): no inhibitory activity
survival and tumor volumes (murine PC models): did not reach statistical significance
cell-free wtIDH1 activity inhibition (IDH1): highly potent
allograft growth (KPC allografts): reduced the growth of KPC allografts
enzyme activity and cell viability ([2]; KPC K8484 cells): reduced enzyme activity and cell viability
potency versus oxaliplatin at the same dose ([2]; nutrient deprivation): substantially more potent
